Experimental data taken from ChEMBL document CHEMBL1155920, “Effects of the aryl linker and the aromatic substituent on the anti-HCV activities of aryl diketoacid (ADK) analogues” (Bioorg Med Chem Lett, 2008).

How the values were obtained:
Hepatitis C virus [1] = assay: Inhibition of recombinant HCV 1b NS5B deltac21 RNA polymerase by scintillator counting; design: species or system Hepatitis C virus subtype 1b
Hepatitis C virus [2] = assay: Antiviral activity against HCV subgenomic replicon harboring NS5B gene transfected in human Huh7 cells; type: functional, Hepacivirus hominis; settings: Huh-7
[3] = Cytotoxicity against human Huh7 cells; type: cell-based, Huh-7
[4] = Inhibition of HCV RNA-dependent RNA polymerase; design: species or system Hepacivirus hominis

SMILES	IC50 (Hepatitis C virus [1])	EC50 (Hepatitis C virus [2])	CC50 [3]	IC50 [4]
O=C(O)/C(O)=C/C(=O)c1ccccc1OCc1ccccc1	30 µM	40 µM	> 100 µM	
O=C(O)/C(O)=C/C(=O)c1cccc(NCc2ccccc2)c1	28 µM	28 µM	> 100 µM	17 µM
O=C(O)/C(O)=C/C(=O)c1cccc(OCc2ccccc2)c1	4.6 µM	30 µM	> 100 µM	8 µM
O=C(O)/C(O)=C/C(=O)c1cccc(OCc2ccc(Cl)cc2)c1	28 µM	> 50 µM	> 100 µM	
O=C(O)/C(O)=C/C(=O)c1ccc(OCc2ccc(Cl)cc2)cc1	1.5 µM	3.1 µM	> 100 µM	
O=C(O)/C(O)=C/C(=O)c1ccccc1OCc1ccc(Cl)cc1	2 µM	0.54 µM	> 100 µM	
O=C(O)/C(O)=C/C(=O)c1cccc(NCc2ccc(Cl)cc2)c1	0.96 µM	0.82 µM	> 100 µM	
O=C(O)/C(O)=C/C(=O)c1ccc(OCc2ccccc2)cc1	8.3 µM	0.66 µM	> 100 µM	
